The values that follow come from US10189830B2, “Alkyl-heteroaryl substituted quinone derivatives for treatment of oxidative stress disorders” (BioElectron Technology Corporation, priority 2013, dated 2019).

The subject of this experiment is Human dermal fibroblasts from Friedreich's Ataxia patients. The experiment is described as follows: Rescue of BSO-stressed FRDA fibroblasts (Calcein AM viability screen). The format is cell-based. Conditions: FRDA fibroblasts GM04078, 1 mM BSO, 48 h. As to the method:
An initial screen was performed to identify compounds effective for the amelioration of redox disorders. Test samples, 4 reference compounds (idebenone, decylubiquinone, Trolox and alpha-tocopherol), and solvent controls were tested for their ability to rescue FRDA fibroblasts stressed by addition of L-buthionine-(S,R)-sulfoximine (BSO), as described in Jauslin et al., Hum. Mol. Genet. 11(24):3055 (2002), Jauslin et al., FASEB J. 17:1972-4 (2003), and International Patent Application WO 2004/003565. […] This specific BSO-mediated cell death can be prevented by administration of antioxidants or molecules involved in the antioxidant pathway, such as alpha-tocopherol, selenium, or small molecule glutathione peroxidase mimetics. However, antioxidants differ in their potency, i.e. the concentration at which they are able to rescue BSO-stressed FRDA fibroblasts.
MEM (a medium enriched in amino acids and vitamins, catalog no. 1-31F24-I) and Medium 199 (M199, catalog no. 1-21F22-I) with Earle's Balanced Salts, without phenol red, were purchased from Bioconcept. Fetal Calf Serum was obtained from PAA Laboratories. Basic fibroblast growth factor and epidermal growth factor were purchased from PeproTech. Penicillin-streptomycin-glutamine mix, L-buthionine (S,R)-sulfoximine, (+)-alpha-tocopherol, decylubiquinone, and insulin from bovine pancreas were purchased from Sigma. Trolox (6-Hydroxy-2,5,7,8-tetramethylchromane-2-carboxylic acid) was obtained from Fluka. Idebenone was obtained from Chemo Iberica. Calcein AM was purchased from Anaspec. Cell culture medium was made by combining 125 ml M199 EBS, 50 ml Fetal Calf Serum, 100 U/ml penicillin, 100 microgram/ml streptomycin, 2 mM glutamine, 10 microgram/ml insulin, 10 ng/ml EGF, and 10 ng/ml bFGF; MEM EBS was added to make the volume up to 500 ml. A 10 mM BSO solution was prepared by dissolving 444 mg BSO in 200 ml of medium (Invitrogen, Carlsbad, Ca.) with subsequent filter-sterilization. During the course of the experiments, this solution was stored at +4° C. The cells were obtained from the Coriell Cell Repositories (Camden, N.J.; repository number GM04078) and grown in 10 cm tissue culture plates. Every third day, they were split at a 1:3 ratio.
The test samples were supplied in 1.5 ml glass vials. The compounds were diluted with DMSO, ethanol or PBS to result in a 5 mM stock solution. Once dissolved, they were stored at −20° C. Reference antioxidants (idebenone, decylubiquinone, alpha-tocopherol and Trolox) were dissolved in DMSO.
Test samples were screened according to the following protocol:
A culture with FRDA fibroblasts was started from a 1 ml vial with approximately 500,000 cells stored in liquid nitrogen. Cells were propagated in 10 cm cell culture dishes by splitting every third day in a ratio of 1:3 until nine plates were available. Once confluent, fibroblasts were harvested. For 54 micro titer plates (96 well-MTP) a total of 14.3 million cells (passage eight) were re-suspended in 480 ml medium, corresponding to 100 microliters medium with 3,000 cells/well. The remaining cells were distributed in 10 cm cell culture plates (500,000 cells/plate) for propagation. The plates were incubated overnight at 37° C. in a atmosphere with 95% humidity and 5% CO2 to allow attachment of the cells to the culture plate.
10% DMSO (242.5 microliters) was added to a well of the microtiter plate. The test compounds were unfrozen, and 7.5 microliters of a 5 mM stock solution was dissolved in the well containing 242.5 microliters of 10% DMSO, resulting in a 150 micromolar master solution. Serial dilutions from the master solution were made. The period between the single dilution steps was kept as short as possible (generally less than 30 seconds). At least 4 hours after attachment into MTP, cells were then treated with the various compound dilutions.
Plates were kept overnight in the cell culture incubator. […]

Where [1] appears, read: Homo sapiens, average, compounds of the invention, read-out: Ec50 Average.
Where [2] appears, read: Homo sapiens, average of three values, control compounds, read-out: EC50 Average.
The mark [3] stands for this setting: Homo sapiens, first of three experiments, read-out: EC50 Value 1.
[4] abbreviates: Homo sapiens, second of three experiments, read-out: EC50 Value 2.
Setting [5] is: Homo sapiens, third of three experiments, read-out: EC50 Value 3.

pEC50: −log10 of the molar value. Like-named read-outs stand apart in the source and are kept apart here.

As to `CC1=C(C)C(=O)C(CCc2nc3ccccc3[nH]2)=C(C)C1=O`, the pEC50 under setting [1] is 7.70.
Still for that read-out and setting: the same measure for `CC1=C(C)C(=O)C(CCCc2nc3ccc(F)cc3[nH]2)=C(C)C1=O`: 7.54; for `CC1=C(C)C(=O)C(CCCc2nc3cc(Cl)ccc3s2)=C(C)C1=O`: 7.55.
Still for that read-out and setting: the same measure for `CC1=C(C)C(=O)C(CCCn2cncn2)=C(C)C1=O`: 6.37; for `CC1=C(C)C(=O)C(CCCc2nc3cc(C(F)(F)F)ccc3[nH]2)=C(C)C1=O`: 8.10; for `CC1=C(C)C(=O)C(CCCc2nc3cc(C)ccc3[nH]2)=C(C)C1=O`: 7.68.
Regarding `COC1=C(OC)C(=O)C(CCCCCCCCCCO)=C(C)C1=O` [Idebenone, reference compound], the pEC50 is 5.92 under setting [2], 5.82 under setting [3], 6.00 under setting [4] and 6.00 under setting [5].
Consider `CC1=C(C)C(=O)C(CCc2ncc[nH]2)=C(C)C1=O`, for which, under setting [1], the pEC50 was 6.65.
The same measure, in the same setting: the same measure for `CC1=C(C)C(=O)C(CCn2c(C)nc3ccccc32)=C(C)C1=O`: 7.31; for `CC1=C(C)C(=O)C(CCCc2nc3ccccc3s2)=C(C)C1=O`: 8.22.
Still for that read-out and setting: the same measure for `CC1=C(C)C(=O)C(CCc2nc3ccccc3o2)=C(C)C1=O`: 7.74; for `CC1=C(C)C(=O)C(CCCc2nc3cc(F)ccc3[nH]2)=C(C)C1=O`: 8.05; for `CC1=C(C)C(=O)C(CCCc2nc3ccc(C)cc3o2)=C(C)C1=O`: 8.15.
Same read-out and setting: the same measure for `CC1=C(C)C(=O)C(CCCc2nc3cccc(F)c3[nH]2)=C(C)C1=O`: 7.74; for `CC1=C(C)C(=O)C(CCCc2nc3cc(C(F)(F)F)ccc3o2)=C(C)C1=O`: 7.57; for `CC1=C(C)C(=O)C(CCn2cnc3ccccc32)=C(C)C1=O`: 7.55.
In the case of `Cc1c(C)c2c(c(C)c1O)CC[C@@](C)(CCC[C@H](C)CCC[C@H](C)CCCC(C)C)O2` [alpha-tocopherol, (+)-alpha-tocopherol, reference compound], the pEC50 is, setting by setting: (average of three values, control compounds, read-out: EC50 Average) 6.52; (first of three experiments, read-out: EC50 Value 1) 6.40; (second of three experiments, read-out: EC50 Value 2) 6.82; (third of three experiments, read-out: EC50 Value 3) 6.46.
As to `CC1=C(C)C(=O)C(CCCc2nc3cccnc3[nH]2)=C(C)C1=O`, under setting [1], the pEC50 was 6.95.
Regarding `Cc1c(C)c2c(c(C)c1O)CCC(C)(C(=O)O)O2` (stereo not drawn) [Trolox, 6-Hydroxy-2,5,7,8-tetramethylchromane-2-carboxylic acid, reference compound], the pEC50 by setting is: under setting [2], 5.06; under setting [3], 5.05; under setting [4], 5.05; under setting [5], 5.10.
Turning to `CC1=C(C)C(=O)C(CCCc2nc3ccccc3o2)=C(C)C1=O`, the pEC50 under setting [1] was 7.70.
For the compound `CC1=C(C)C(=O)C(CCCc2nc3cccc(C)c3[nH]2)=C(C)C1=O`, the pEC50 under setting [1] was 8.15.
The same measure, in the same setting: the same measure for `CC1=C(C)C(=O)C(CCCc2nc3ccc(C(N)=O)cc3[nH]2)=C(C)C1=O`: 7.10.
On the same count and under the same terms, in the case of `CC1=C(C)C(=O)C(CCCc2nc3ccc(C(=O)NCCCO)cc3[nH]2)=C(C)C1=O` it was under 6.70.
The same measure, in the same setting: the same measure for `CC1=C(C)C(=O)C(CCc2ncc(C)s2)=C(C)C1=O`: 7.57.
Take `CC1=C(C)C(=O)C(CCCc2nc3ccc(Cl)cc3[nH]2)=C(C)C1=O`: under setting [1], the pEC50 was 8.22.
With `CCCCCCCCCCC1=C(C)C(=O)C(OC)=C(OC)C1=O` [decylubiquinone, reference compound], the pEC50 was 7.42 under setting [2], 7.30 under setting [3], 7.46 under setting [4] and 7.52 under setting [5].
Consider `CC1=C(C)C(=O)C(CCCc2nc3ccccc3[nH]2)=C(C)C1=O`, for which the pEC50 under setting [1] was 7.85.
On the same count and under the same terms, the same measure for `CC1=C(C)C(=O)C(CCc2nc3ccccc3s2)=C(C)C1=O`: 8.22.
Take `CC1=C(C)C(=O)C(CCCn2cnc3ccccc32)=C(C)C1=O`: the pEC50 under setting [1] is 7.68.
The same measure, in the same setting: the same measure for `CC1=C(C)C(=O)C(CCCc2nc3ccc(F)cc3o2)=C(C)C1=O`: 8.00; for `CC1=C(C)C(=O)C(CCCc2nc3ccc(C(=O)N4CCN(C)CC4)cc3[nH]2)=C(C)C1=O`: 7.04.
Same read-out and setting: the same measure for `CC1=C(C)C(=O)C(CCCn2c(C)nc3ccccc32)=C(C)C1=O`: 7.59; for `CC1=C(C)C(=O)C(CCCc2nc3ccccc3n2C)=C(C)C1=O`: 7.60.
